Measurements as given in the NIST ThermoML archive (doi:10.1021/acs.jced.8b01135).

Test: xn = mol fraction of the nth substance listed
Details: 102 kPa, Liquid; for speed of sound: Frequency=3 MHz, Single path-length method; for mass density: Vibrating tube method; for viscosity: Concentric cylinders viscometry

CCCCCCCCCCC1CCCCC1 [decylcyclohexane] + CCCCCCCCCCCC
Details | mass density [kg/m3] | speed of sound [m/s] | viscosity [mPa·s]
288.15 K, x1 = 0.1003 | 760.76 | 1329.7 | –
288.15 K, x1 = 0.2194 | 770.26 | 1344 | –
288.15 K, x1 = 0.3002 | 776.43 | 1353.5 | –
288.15 K, x1 = 0.4004 | 783.8 | 1364.7 | –
288.15 K, x1 = 0.4999 | 790.8 | 1375.6 | –
288.15 K, x1 = 0.5993 | 797.51 | 1386.2 | –
288.15 K, x1 = 0.7001 | 804.03 | 1396.3 | –
288.15 K, x1 = 0.8005 | 810.28 | 1406.3 | –
288.15 K, x1 = 0.8991 | 816.18 | 1415.8 | –
288.15 K, x1 = 1 | 821.93 | 1425.2 | –
293.15 K, x1 = 0.1003 | 757.16 | 1310.3 | 1.7
293.15 K, x1 = 0.2194 | 766.69 | 1324.7 | 1.98
293.15 K, x1 = 0.3002 | 772.89 | 1334.2 | 2.19
293.15 K, x1 = 0.4004 | 780.28 | 1345.7 | 2.48
293.15 K, x1 = 0.4999 | 787.31 | 1356.6 | 2.82
293.15 K, x1 = 0.5993 | 794.05 | 1367.1 | 3.2
293.15 K, x1 = 0.7001 | 800.58 | 1377.5 | 3.64
293.15 K, x1 = 0.8005 | 806.85 | 1387.5 | 4.13
293.15 K, x1 = 0.8991 | 812.78 | 1397.1 | 4.68
293.15 K, x1 = 1 | 818.54 | 1406.4 | 5.34
298.15 K, x1 = 0.1003 | 753.56 | 1290.9 | –
298.15 K, x1 = 0.2194 | 763.13 | 1305.4 | –
298.15 K, x1 = 0.3002 | 769.34 | 1315 | –
298.15 K, x1 = 0.4004 | 776.76 | 1326.8 | –
298.15 K, x1 = 0.4999 | 783.81 | 1337.8 | –
298.15 K, x1 = 0.5993 | 790.58 | 1348.6 | –
298.15 K, x1 = 0.7001 | 797.13 | 1358.8 | –
298.15 K, x1 = 0.8005 | 803.42 | 1368.8 | –
298.15 K, x1 = 0.8991 | 809.36 | 1378.5 | –
298.15 K, x1 = 1 | 815.16 | 1387.7 | –
303.15 K, x1 = 0.1003 | 749.96 | 1271.8 | 1.43
303.15 K, x1 = 0.2194 | 759.57 | 1286.4 | 1.65
303.15 K, x1 = 0.3002 | 765.8 | 1296 | 1.79
303.15 K, x1 = 0.4004 | 773.24 | 1308.1 | 2.02
303.15 K, x1 = 0.4999 | 780.31 | 1319.1 | 2.27
303.15 K, x1 = 0.5993 | 787.1 | 1329.7 | 2.55
303.15 K, x1 = 0.7001 | 793.68 | 1340.2 | 2.88
303.15 K, x1 = 0.8005 | 799.99 | 1350.4 | 3.23
303.15 K, x1 = 0.8991 | 805.95 | 1360.1 | 3.63
303.15 K, x1 = 1 | 811.78 | 1369.1 | 4.09
313.15 K, x1 = 0.1003 | 742.75 | 1234.1 | 1.21
313.15 K, x1 = 0.2194 | 752.43 | 1248.9 | 1.39
313.15 K, x1 = 0.3002 | 758.71 | 1258.7 | 1.49
313.15 K, x1 = 0.4004 | 766.19 | 1271 | 1.67
313.15 K, x1 = 0.4999 | 773.32 | 1282.2 | 1.87
313.15 K, x1 = 0.5993 | 780.16 | 1292 | 2.08
313.15 K, x1 = 0.7001 | 786.78 | 1303.7 | 2.33
313.15 K, x1 = 0.8005 | 793.13 | 1313.9 | 2.6
313.15 K, x1 = 0.8991 | 799.14 | 1323.7 | 2.89
313.15 K, x1 = 1 | 805.02 | 1332.8 | 3.23
323.15 K, x1 = 0.1003 | 735.51 | 1197.2 | 1.04
323.15 K, x1 = 0.2194 | 745.28 | 1212.3 | 1.19
323.15 K, x1 = 0.3002 | 751.59 | 1222.1 | 1.29
323.15 K, x1 = 0.4004 | 759.13 | 1234.7 | 1.41
323.15 K, x1 = 0.4999 | 766.31 | 1246 | 1.56
323.15 K, x1 = 0.5993 | 773.2 | 1257 | 1.73
323.15 K, x1 = 0.7001 | 779.88 | 1267.7 | 1.92
323.15 K, x1 = 0.8005 | 786.28 | 1278.1 | 2.13
323.15 K, x1 = 0.8991 | 792.33 | 1288 | 2.35
323.15 K, x1 = 1 | 798.26 | 1297.2 | 2.6
333.15 K, x1 = 0.1003 | 728.24 | 1161.3 | 0.904
333.15 K, x1 = 0.2194 | 738.08 | 1176.5 | 1.02
333.15 K, x1 = 0.3002 | 744.46 | 1186.5 | 1.11
333.15 K, x1 = 0.4004 | 752.05 | 1199.1 | 1.2
333.15 K, x1 = 0.4999 | 759.29 | 1210.6 | 1.32
333.15 K, x1 = 0.5993 | 766.23 | 1221.8 | 1.46
333.15 K, x1 = 0.7001 | 772.96 | 1232.7 | 1.61
333.15 K, x1 = 0.8005 | 779.42 | 1243.2 | 1.78
333.15 K, x1 = 0.8991 | 785.51 | 1253.2 | 1.95
333.15 K, x1 = 1 | 791.49 | 1262.7 | 2.15
